Consider 4 molecules from article PMC8510169, “Isolation, Characterization, Complete Structural Assignment, and Anticancer Activities of the Methoxylated Flavonoids from Rhamnus disperma Roots” (Molecules, 2021).

Where two headings read alike, the source gives them in different places. Bounds are passed on as bounds.

Data set [1] relates to A2780 (human ovary adenocarcinoma). The experiment in a line: MTT cytotoxicity assay, A2780. The following applies: 72 h, mean ± SD. In kind it is cell-based. The method, then:
(§1) Three cancerous cell lines, as well as one normal fibroblast cell line, were bought from the ATCC, USA: MCF 7 (human breast adenocarcinoma), A2780 (human ovary adenocarcinoma), HT 29 (human colon adenocarcinoma), and MRC5 (normal human fetal lung fibroblast). The culture procedure was performed as described in the literature. Briefly, the cells were sub-cultured at 37 °C, 5% CO2, 95% air, and 100% relative humidity. RPMI-1640 media (10% FBS, L-glutamine and 1% antibiotic-antimycotic) was used for all cells except for MRC5, which was maintained in Eagles minimum essential medium (EMEM, 10% FBS and 1% antibiotic-antimycotic). Cytotoxicity of compounds 1–7 and 9 was evaluated by an MTT assay as previously described. Each of the three cell lines and one normal fibroblast were cultured in 96-well plates (3 × 10^3/well), and incubated at 37 °C overnight. Final concentrations of each compound were: 0, 0.05, 0.5, 5, 25, and 50 μM in media (DMSO 0.1%). Each concentration was tested in triplicates. The plates were incubated for 72 h and then MTT (50 μL) was added to each well. Plates were incubated for 3 h, supernatant was aspirated, and 100 μL of DMSO was added to each well. Absorbance was read on a multi-plate reader. The optical density of the purple formazan A550 is proportional to the number of viable cells. Compound concentrations causing 50% inhibition (IC50) compared to control cell growth (100%) were determined. GraphPad Prism version 5.00 for Windows, GraphPad Software (San Diego, CA, USA) was used for analysis.

Data set [2] has as its system HT 29 (human colon adenocarcinoma). The experiment in a line: MTT cytotoxicity assay, HT 29. In kind it is cell-based. To be noted: mean ± SD. The method, then:
as §1
For orientation: Formazan colour is commonly taken as a measure of viable cells.

The test system of data set [3] is MCF 7, A2780, and HT 29 cancer cell lines. The data set can be described thus: MTT cytotoxicity assay, tested cancer cell lines taken together. The data set is classed as cell-based, human. To be noted: for IC50: 72 h, MTT assay, MCF 7, A2780, HT 29, read-out: IC50 values against the three tested cancer cell lines (range over cell lines); for folds more selective/cytotoxic against tested cancer cell lines compared to MRC5 normal cells: ratio of MRC5 IC50 to cancer cell line IC50. The method, then: as §1

Data set [4] relates to MCF 7 cells. The experiment in a line: Cell cycle analysis (PI, flow cytometry). The data set is classed as cell-based, human. The following applies: MCF 7, 24 h, 5, 10 and 20 µM, compared to the control. As for the experimental part:
The cell cycle is a series of changes occurring from the initial phase of cell formation leading to its division as a consequence of a specific mechanism. Cell cycle phases include G1 (gap 1), S (synthesis), G2 (gap 2), and M (mitosis), with cell cycle arrest usually taking place in the G1/S or the G2/M check points. Compound 1 was used to treat the MCF 7 cell line (24 h; 5 µM, 10 µM, and 20 µM) to investigate possible cell cycle effect.
Cell cycle analysis was performed using MCF 7 cells, which were cultured in 6 well plates (1 × 10^5 cells/well in 2 mL medium), before treatment with compound 1 (0, 5, 10, and 20 μM; 24 h). Cells were washed with cold PBS and trypsinized. Collected cells were centrifuged at 350 g/5 min, and supernatant discarded. Pellets were washed in cold PBS, centrifuged, and fixed overnight in 70% ice-cold ethanol. Centrifuged cells were re-suspended in cold PBS with the addition of ribonuclease A (15 min), followed by PI (2 µL/mL). Samples were held on ice and analyzed by flow cytometry. Data analysis of the DNA contents (PI bound to DNA) of 20,000 events was carried out using Expo 32 software.
(In general: Flow cytometry measures light scatter and fluorescence of single cells or particles in a stream.)

Data set [5] concerns MCF 7 cells. The data set can be described thus: Annexin V FITC/PI apoptosis assay. The data set is classed as cell-based, human. The following applies: MCF 7, 24 h, 5, 10 and 20 µM. An excerpt:
Apoptosis was quantified by detecting cell surface exposure of phosphatidylserine (PS) in apoptotic cells using annexin V PI/FITC. Living cells stained with neither of the two dyes (PI−/annexin V−), while early apoptotic cells stain only with annexin V (PI−/annexin V+). In late apoptosis, cell membrane integrity is lost allowing penetration of PI (PI+/annexin V+); while in necrosis (death), cells stain with PI only (PI+/annexin V−).
The Annexin V FITC/PI assay was devised to quantify apoptosis using MCF 7 cells. MCF 7 cells were cultured in 6 well plates (1 × 10^5 cells/well) in 2 mL medium overnight at 37 °C. Then it was treated by compound 1 (24 h; final concentrations: 0, 5, 10, and 20 µM). Media was collected in tubes and kept on ice, and remaining cells were trypsinized, incubated at 37 °C and added to previous tubes. Cells were centrifuged (350 g) and supernatants were discarded. Cells were washed with PBS, centrifuged and pellets re-suspended in binding buffer (100 μL) and annexin V FITC (10 μL). Tubes were incubated at room temperature in the dark for 20 min. Binding buffer (400 μL) and 10 μL propidium iodide (PI) were added. Samples were analyzed by flow cytometry (BC FC500) within 1 h. Viable cells were differentiated from early and late apoptotic/necrotic cells by annexin V (X axis) and PI staining (Y axis).

In data set [6] the test system is MCF 7 (human breast adenocarcinoma). The data set can be described thus: MTT cytotoxicity assay, MCF 7. The data set is classed as cell-based. To be noted: mean ± SD. As for the experimental part: as §1
Data set [7] deals with MRC5 (normal human fetal lung fibroblast). The experiment in a line: MTT cytotoxicity assay, MRC5 normal fibroblasts. To be noted: 72 h, normal fibroblast cell line, mean ± SD. In kind it is cell-based. As for the experimental part:
as §1

In general, IC50 refers to the concentration that gives 50% inhibition. As to `COc1cc2oc(-c3ccc(O)cc3)c(OC)c(=O)c2c(O)c1OC` [Compound 1, 5,4’-dihydroxy-3,6,7-tri-O-methyl flavone (penduletin)], the IC50 in data set [1] is 530 ± 450 nM; in data set [2] (72 h), 2160 ± 20 nM; in data set [2] (Homo sapiens, HT-29, 72 h), not above 2000 nM; in data set [3] (Homo sapiens), 530 to 9070 nM; in data set [3] it was 530 to 2170 nM; in data set [6] (72 h), 2170 ± 260 nM. For the same molecule, the IC50 in data set [6] (Homo sapiens, MCF7, 72 h) was not above 2000 nM; in data set [7], 4400 ± 1450 nM. The “folds more selective/cytotoxic against tested cancer cell lines compared to MRC5 normal cells” value (shortened to “folds more selective/cytotoxic”) in data set [3] was 2–9 folds. Further, the “effect on cell cycle (in words)” value is “caused G1 cell cycle arrest” with MCF 7 cells [4] and “caused dose-dependent G1 arrest” in the data set with MCF 7 cells [4] (listed as compound 1). Also, the “induction of apoptosis (in words)” value in the data set on MCF 7 cells [5] is listed as “doubled MCF 7 apoptotic populations in a dose dependent manner”; in the data set on MCF 7 cells [5] (listed as compound 1) it was “induced remarkable apoptosis in a dose dependent manner”.
Consider `COc1cc(-c2oc3cc(OC)c(OC)c(O)c3c(=O)c2OC)cc(O)c1OC` [Compound 2, 5,3’-dihydroxy-3,6,7,4’,5’-penta-O-methyl flavone], for which the IC50 in data set [1] stood at 8970 ± 1720 nM; in data set [2] (Homo sapiens, HT-29, 72 h) it was 9070 ± 220 nM; in data set [6] (Homo sapiens, MCF7, 72 h), 6810 ± 40 nM; in data set [7] it was 5460 ± 1570 nM. The “folds more selective/cytotoxic” value in data set [3] is recorded as “not selective”.
Regarding `COc1cc(-c2oc3cc(OC)c(OC)c(O)c3c(=O)c2OC)cc(OC)c1OC` [Compound 3, 5-hydroxy-3,6,7,3’,4’,5’-hexa-O-methyl flavone], the concentration for half-maximal inhibition (IC50) in data set [1] is 3730 ± 1750 nM; in data set [2] (Homo sapiens, HT-29, 72 h), 2710 ± 1250 nM; in data set [3] (Homo sapiens) it was 530 to 9070 nM; in data set [6] (Homo sapiens, MCF7, 72 h), 2760 ± 160 nM; in data set [7], 11700 ± 1580 nM. Besides, the “folds more selective/cytotoxic” value in data set [3] was 4–5 folds.
For the molecule `COc1cc(-c2oc3cc(OC)c(OC)c(OC(C)=O)c3c(=O)c2OC)cc(OC)c1OC` [Compound 9, 5-O-acetyl-3,6,7,3’,4’,5’-hexa-O-methyl flavone], the half-inhibitory concentration (IC50) in data set [2] (72 h) is 3180 ± 640 nM; in data set [2] (Homo sapiens, HT-29, 72 h), 2000 to 3000 nM; in data set [6] (72 h), 2190 ± 640 nM; in data set [6] (Homo sapiens, MCF7, 72 h), 2000 to 3000 nM; in data set [7], 19000 ± 2980 nM. In addition, in data set [3], the “folds more selective/cytotoxic” value was 6–8 folds.
